Drawing on patent US9598365B2, “Method for synthesizing cycloalkanyl[b]indoles, cycloalkanyl[b]benzofurans, cycloalkanyl[b]benzothiophenes, compounds and methods of use” (Trustees of Dartmouth College, priority 2012, dated 2017), this text covers inhibition for 1 molecule.

The assay concerns the target T1, hHK2 (Homo sapiens, UniProt P52789).
T1 sequence (P52789 1-917): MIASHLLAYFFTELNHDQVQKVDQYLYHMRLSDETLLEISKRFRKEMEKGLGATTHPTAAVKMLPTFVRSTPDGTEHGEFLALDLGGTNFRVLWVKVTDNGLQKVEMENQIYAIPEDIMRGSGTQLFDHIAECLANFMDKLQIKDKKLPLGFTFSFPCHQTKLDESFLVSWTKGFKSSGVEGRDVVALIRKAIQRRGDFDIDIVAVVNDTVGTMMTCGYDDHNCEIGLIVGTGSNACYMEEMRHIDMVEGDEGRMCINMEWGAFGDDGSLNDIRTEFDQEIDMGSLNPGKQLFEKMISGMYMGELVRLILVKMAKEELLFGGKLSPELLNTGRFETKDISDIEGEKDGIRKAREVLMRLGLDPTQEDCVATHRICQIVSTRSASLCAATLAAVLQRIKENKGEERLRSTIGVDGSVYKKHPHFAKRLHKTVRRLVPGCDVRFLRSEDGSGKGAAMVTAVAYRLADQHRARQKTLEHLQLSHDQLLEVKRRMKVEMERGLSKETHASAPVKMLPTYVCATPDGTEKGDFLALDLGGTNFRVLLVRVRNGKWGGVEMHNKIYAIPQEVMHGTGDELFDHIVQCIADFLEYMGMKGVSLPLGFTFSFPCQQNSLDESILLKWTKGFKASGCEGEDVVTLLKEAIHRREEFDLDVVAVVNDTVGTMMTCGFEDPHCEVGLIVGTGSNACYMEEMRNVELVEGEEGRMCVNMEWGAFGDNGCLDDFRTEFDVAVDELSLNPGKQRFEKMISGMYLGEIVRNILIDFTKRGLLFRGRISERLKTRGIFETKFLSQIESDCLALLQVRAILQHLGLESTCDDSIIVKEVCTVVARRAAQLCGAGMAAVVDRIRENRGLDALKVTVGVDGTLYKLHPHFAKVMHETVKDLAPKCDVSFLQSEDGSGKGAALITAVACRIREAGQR
The experiment in a line: Hexokinase 2 inhibitor, hHK2 ADP-FP. Type of assay: biochemical. An excerpt: Selected compounds of this invention were screened for K-Ras Wnt synthetic lethal, anti-angiogenic activity, Wnt pathway modulatory activity, insulin and GLP-1 secretion modulatory activity, GPR119 receptor agonist activity, mGlu2R antagonist activity, CGRP receptor antagonist activity, Apelin receptor agonist activity and hexokinase 2 inhibitory activity using the PD^2 and TD^2 Screening Panel (Eli Lilly & Company). See Lee, et al. (2011) J. Biomol. Screen. 16:588-602.

The structures appear in SMILES notation.

Broadly, the inhibition is the change of the read-out against control, counted positive when it falls. A higher inhibition goes with a strong effect. Consider `CC1(C)c2c([nH]c3ccc(Cl)cc23)C2C=CC1C2` (stereo not shown) [Compound 11s], for which the inhibition at 20 µM amounted to 5.5%.
